Measured values as given in ChEMBL document CHEMBL1201862, “PubChem BioAssay data set” (2004).
Activity calls are given as the source filed them.

Legend:
[1] = biological target: T1, Microphthalmia-associated transcription factor (Homo sapiens, UniProt O75030); assay: reducers of TRPM1 reporter luminescence, concentration series – cell-based, SK-MEL-5, cherry-picked, set 3, MITF inhibitor project, dose response (AID 493073); assay type: functional;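 further: SK-MEL-5 melanoma cells with luciferase driven by the MITF target TRPM1 promoter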
T1 sequence (O75030 whole entry): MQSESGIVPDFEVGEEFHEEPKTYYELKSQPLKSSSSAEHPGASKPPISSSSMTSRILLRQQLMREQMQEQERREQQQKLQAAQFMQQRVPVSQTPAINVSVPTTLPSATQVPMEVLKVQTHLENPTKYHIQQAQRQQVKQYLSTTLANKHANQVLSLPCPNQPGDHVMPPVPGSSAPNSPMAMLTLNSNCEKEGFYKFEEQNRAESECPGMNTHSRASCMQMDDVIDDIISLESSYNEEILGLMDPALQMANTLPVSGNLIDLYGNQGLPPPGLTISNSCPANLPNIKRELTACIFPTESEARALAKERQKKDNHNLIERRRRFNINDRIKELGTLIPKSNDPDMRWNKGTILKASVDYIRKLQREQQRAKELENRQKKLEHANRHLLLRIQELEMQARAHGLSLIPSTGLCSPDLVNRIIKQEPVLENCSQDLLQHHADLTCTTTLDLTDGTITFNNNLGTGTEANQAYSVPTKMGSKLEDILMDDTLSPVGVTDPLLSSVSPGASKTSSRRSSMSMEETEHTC

[2] = cells; assay type: functional
[3] = test system: Streptococcus; assay: GAS UMAA2166 growth inhibition – luminescence, BacTiterGlo, counter-screen for streptokinase expression inhibitor project, dose response (AID 1915); assay type: functional, organism-based;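 further: potency for reduction of bacterial viability or growth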
[4] = NIH-3T3 fibroblast cytotoxicity, dose response, cytotoxicity control, cell-based, fluorescence, Alamar Blue, secondary assay (AID 2327); assay type: functional;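 further: NIH-3T3 mouse fibroblasts cultured with fluconazole at 8 µg/mL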
[5] = test system: Streptococcus sp. 'group A'; assay: Streptococcus pyogenes SK(-)GAS viability under kanamycin – luminescence, BacTiterGlo, confirmation, counter-screen for streptokinase expression inhibitor project, dose response (AID 1900); assay type: functional, organism-based
[6] = fluconazole-exposed Candida albicans growth modulators – fluorescence, retest, confirmation (AID 2467); assay type: functional, cell-based
[7] = biological target: T2, Short transient receptor potential channel 4 (Mus musculus, UniProt Q9QUQ5); assay: calcium entry via TRPC4 opening agents – cell-based, HEK293 TRPC4/mu-opioid, Fluo-4 calcium, dose response (AID 434937); assay type: functional
T2 sequence (Q9QUQ5 whole entry): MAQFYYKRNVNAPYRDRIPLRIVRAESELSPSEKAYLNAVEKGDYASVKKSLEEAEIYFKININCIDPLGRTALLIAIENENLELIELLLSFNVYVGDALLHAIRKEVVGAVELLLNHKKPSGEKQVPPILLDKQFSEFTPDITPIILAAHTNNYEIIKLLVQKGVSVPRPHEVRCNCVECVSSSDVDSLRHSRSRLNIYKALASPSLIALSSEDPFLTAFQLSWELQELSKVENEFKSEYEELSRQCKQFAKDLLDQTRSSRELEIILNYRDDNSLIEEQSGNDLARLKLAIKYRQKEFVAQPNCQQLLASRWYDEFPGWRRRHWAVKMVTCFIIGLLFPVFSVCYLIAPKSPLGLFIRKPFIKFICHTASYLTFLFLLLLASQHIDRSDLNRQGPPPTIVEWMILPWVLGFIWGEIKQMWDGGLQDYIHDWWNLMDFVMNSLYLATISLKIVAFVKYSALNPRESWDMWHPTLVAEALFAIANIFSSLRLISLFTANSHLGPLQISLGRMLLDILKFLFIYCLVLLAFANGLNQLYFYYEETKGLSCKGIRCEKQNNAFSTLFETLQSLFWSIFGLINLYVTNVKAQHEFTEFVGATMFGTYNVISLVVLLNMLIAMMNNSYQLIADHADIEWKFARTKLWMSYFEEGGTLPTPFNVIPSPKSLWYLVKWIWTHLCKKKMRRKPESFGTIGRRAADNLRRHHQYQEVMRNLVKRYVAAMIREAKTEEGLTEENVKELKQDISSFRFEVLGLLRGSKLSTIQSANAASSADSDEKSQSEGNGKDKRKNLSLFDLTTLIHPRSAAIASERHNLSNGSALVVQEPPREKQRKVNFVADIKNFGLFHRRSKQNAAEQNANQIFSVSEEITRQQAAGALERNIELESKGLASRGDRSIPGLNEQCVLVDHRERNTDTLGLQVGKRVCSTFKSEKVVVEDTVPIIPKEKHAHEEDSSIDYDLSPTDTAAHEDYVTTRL

[8] = cells
[9] = viability of uninfected HEp-2 cells – cell-based, HTS, cytotoxicity control for RSV inhibitor project, dose response (AID 2410); assay type: functional; conditions: human respiratory syncytial virus
[10] = biological target: Voltage-dependent T-type calcium channel subunit alpha-1H (Homo sapiens, UniProt O95180); assay type: functional;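 further: channel activity triggered by adding a high calcium stimulation buffer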
[11] = biological target: Glyceraldehyde-3-phosphate dehydrogenase (Homo sapiens, UniProt P04406)
[12] = test system: INS1; assay: INS-1E survival protection against cytokine death – cell-based, luminescence, retest, dose response (AID 449756); assay type: functional; conditions: Rattus norvegicus, INS1;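 further: cell death triggered by IL-1 beta plus TNF-alpha plus IFN-gamma mixture; protective hits raise ATP signal compared with cytokine alone wells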
[13] = Luminescence Cell-Based Dose Retest to Confirm Inhibitors of Cancer Stem Cells. [Related pubchem assays (depositor defined):AID2717, AID2721]; assay type: functional; conditions: Homo sapiens
[14] = A Cell Based Secondary Assay To Explore Cytotoxicity of Compounds that Sensitize Mycobacterium Tuberculosis to Beta-Lactam Antibiotics.; assay type: functional
[15] = test system: HEK293; assay: cells; assay type: functional, cell-based; conditions: Homo sapiens
[16] = test system: HEK293; assay: inhibition of NOD1-driven NF-kB reporter – cell-based, luminescence, uHTS, primary screen (AID 1578); assay type: functional; conditions: Homo sapiens
[17] = biological target: T3, Nucleotide-binding oligomerization domain-containing protein 1 (Homo sapiens, UniProt Q9Y239); assay: blockers of NOD1 pathway activity – revised, SAR follow-up (AID 2333); assay type: functional
T3 sequence (Q9Y239 whole entry): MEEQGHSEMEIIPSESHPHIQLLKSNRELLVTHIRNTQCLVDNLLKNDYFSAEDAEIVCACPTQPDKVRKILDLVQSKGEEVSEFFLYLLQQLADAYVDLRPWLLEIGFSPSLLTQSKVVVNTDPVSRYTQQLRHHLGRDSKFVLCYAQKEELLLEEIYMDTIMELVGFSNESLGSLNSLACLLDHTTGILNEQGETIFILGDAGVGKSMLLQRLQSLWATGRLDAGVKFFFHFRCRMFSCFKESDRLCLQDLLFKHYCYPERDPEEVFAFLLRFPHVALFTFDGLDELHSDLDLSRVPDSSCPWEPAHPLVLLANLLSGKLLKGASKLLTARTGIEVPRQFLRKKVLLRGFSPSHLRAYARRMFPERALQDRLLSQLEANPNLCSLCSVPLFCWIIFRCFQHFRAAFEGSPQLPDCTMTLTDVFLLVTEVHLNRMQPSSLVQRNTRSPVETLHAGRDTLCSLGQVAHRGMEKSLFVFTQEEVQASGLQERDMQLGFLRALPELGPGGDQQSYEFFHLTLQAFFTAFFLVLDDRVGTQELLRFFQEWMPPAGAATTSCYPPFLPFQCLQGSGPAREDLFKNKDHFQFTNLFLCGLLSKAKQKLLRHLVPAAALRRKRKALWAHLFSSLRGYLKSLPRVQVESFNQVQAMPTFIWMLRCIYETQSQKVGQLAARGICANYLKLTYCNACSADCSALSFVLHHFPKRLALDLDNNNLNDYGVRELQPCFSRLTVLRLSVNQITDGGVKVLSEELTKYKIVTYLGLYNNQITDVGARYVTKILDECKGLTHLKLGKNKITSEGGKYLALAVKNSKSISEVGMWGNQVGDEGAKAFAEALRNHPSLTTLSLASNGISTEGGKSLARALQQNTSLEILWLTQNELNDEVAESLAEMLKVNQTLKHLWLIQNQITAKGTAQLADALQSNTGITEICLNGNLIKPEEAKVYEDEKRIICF

[18] = test system: HEK293; assay: cells; assay type: functional, cell-based; conditions: Homo sapiens; remark: listed apart in the source
[19] = test system: HEK293; assay: cells; conditions: Homo sapiens
[20] = test system: HEK293; assay: NOD2 signaling inhibitors in MDP-stimulated cells, cell-based, uHTS, luminescence (AID 2001); assay type: functional; conditions: Homo sapiens
[21] = biological target: Tumor necrosis factor (Homo sapiens, UniProt P01375); assay: analog potency on TNFa NF-kB signaling – cell-based, revised, SAR follow-up (AID 2337); assay type: functional
[22] = biological target: Genome polyprotein (dengue virus type 2, UniProt P29990); assay: flavivirus cap methylation enzyme inhibition – biochemical, confirmation dose response, primary screen (AID 588689); assay type: functional
[23] = test system: H4; assay: Luminescence Cell-Based Dose Response HTS to Identify Activators of 5'UTR Stem-Loop Driven Prion Protein mRNA Translation in H4 Neuroglioblastoma Cells. [Related pubchem assays: 1829 (Project Summary), 1814 (Primary HTS)]; assay type: functional; conditions: Homo sapiens
[24] = Luminescence Cell-Based Dose Confirmation HTS to Identify Activators of 5'UTR Stem-Loop Driven Alpha-Synuclein mRNA Translation in H4 Neuroglioblastoma Cells. [Related pubchem assays: 1829 (Project Summary), 1814 (Primary HTS)]; assay type: functional
[25] = Luminescence Cell-Based Dose Response HTS to Identify Activators of Luciferase Translation or Activity in H4 […] Cells. [Related pubchem assays: 1829 (Project Summary), 1814 (Primary HTS)]; assay type: functional
[26] = T. cruzi growth inhibition in host cells, dose response, cell-based, plate reader, dry powder, set 2 (AID 652275); assay type: functional
[27] = biological target: Beta-galactosidase (Escherichia coli, UniProt Q8VNN2); assay: detection-enzyme interference by beta-gal modulators – biochemical, E. coli enzyme, set 3, artefact control for CCR6 antagonist project, dose response (AID 504712); assay type: functional
Chain of Beta-galactosidase (Q8VNN2 whole entry): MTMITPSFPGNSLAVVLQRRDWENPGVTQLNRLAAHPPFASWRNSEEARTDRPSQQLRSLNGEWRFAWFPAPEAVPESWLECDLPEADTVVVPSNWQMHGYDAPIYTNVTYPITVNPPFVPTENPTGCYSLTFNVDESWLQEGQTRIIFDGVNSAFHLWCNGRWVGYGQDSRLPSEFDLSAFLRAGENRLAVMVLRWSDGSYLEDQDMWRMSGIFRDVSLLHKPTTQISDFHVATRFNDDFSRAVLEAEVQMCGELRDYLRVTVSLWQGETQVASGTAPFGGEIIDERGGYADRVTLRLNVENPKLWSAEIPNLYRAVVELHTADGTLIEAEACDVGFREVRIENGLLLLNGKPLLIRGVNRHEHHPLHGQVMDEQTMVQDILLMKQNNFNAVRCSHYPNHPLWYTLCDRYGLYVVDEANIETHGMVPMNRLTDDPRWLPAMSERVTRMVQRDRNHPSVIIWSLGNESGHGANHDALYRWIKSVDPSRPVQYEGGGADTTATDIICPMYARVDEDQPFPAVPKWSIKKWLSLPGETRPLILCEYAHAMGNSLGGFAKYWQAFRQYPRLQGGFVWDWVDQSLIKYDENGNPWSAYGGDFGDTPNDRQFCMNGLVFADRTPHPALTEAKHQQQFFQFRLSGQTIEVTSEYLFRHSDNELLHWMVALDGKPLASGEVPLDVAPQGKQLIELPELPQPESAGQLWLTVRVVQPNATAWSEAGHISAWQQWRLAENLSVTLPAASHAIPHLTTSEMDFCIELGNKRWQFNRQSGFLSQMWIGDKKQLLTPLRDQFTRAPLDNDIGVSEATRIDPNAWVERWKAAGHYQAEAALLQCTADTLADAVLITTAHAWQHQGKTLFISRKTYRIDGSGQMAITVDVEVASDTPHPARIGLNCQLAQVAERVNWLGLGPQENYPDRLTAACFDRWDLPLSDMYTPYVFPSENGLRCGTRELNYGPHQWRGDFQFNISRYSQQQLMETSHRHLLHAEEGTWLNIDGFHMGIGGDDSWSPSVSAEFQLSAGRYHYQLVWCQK

Chain of Voltage-dependent T-type calcium channel subunit alpha-1H (O95180 whole entry): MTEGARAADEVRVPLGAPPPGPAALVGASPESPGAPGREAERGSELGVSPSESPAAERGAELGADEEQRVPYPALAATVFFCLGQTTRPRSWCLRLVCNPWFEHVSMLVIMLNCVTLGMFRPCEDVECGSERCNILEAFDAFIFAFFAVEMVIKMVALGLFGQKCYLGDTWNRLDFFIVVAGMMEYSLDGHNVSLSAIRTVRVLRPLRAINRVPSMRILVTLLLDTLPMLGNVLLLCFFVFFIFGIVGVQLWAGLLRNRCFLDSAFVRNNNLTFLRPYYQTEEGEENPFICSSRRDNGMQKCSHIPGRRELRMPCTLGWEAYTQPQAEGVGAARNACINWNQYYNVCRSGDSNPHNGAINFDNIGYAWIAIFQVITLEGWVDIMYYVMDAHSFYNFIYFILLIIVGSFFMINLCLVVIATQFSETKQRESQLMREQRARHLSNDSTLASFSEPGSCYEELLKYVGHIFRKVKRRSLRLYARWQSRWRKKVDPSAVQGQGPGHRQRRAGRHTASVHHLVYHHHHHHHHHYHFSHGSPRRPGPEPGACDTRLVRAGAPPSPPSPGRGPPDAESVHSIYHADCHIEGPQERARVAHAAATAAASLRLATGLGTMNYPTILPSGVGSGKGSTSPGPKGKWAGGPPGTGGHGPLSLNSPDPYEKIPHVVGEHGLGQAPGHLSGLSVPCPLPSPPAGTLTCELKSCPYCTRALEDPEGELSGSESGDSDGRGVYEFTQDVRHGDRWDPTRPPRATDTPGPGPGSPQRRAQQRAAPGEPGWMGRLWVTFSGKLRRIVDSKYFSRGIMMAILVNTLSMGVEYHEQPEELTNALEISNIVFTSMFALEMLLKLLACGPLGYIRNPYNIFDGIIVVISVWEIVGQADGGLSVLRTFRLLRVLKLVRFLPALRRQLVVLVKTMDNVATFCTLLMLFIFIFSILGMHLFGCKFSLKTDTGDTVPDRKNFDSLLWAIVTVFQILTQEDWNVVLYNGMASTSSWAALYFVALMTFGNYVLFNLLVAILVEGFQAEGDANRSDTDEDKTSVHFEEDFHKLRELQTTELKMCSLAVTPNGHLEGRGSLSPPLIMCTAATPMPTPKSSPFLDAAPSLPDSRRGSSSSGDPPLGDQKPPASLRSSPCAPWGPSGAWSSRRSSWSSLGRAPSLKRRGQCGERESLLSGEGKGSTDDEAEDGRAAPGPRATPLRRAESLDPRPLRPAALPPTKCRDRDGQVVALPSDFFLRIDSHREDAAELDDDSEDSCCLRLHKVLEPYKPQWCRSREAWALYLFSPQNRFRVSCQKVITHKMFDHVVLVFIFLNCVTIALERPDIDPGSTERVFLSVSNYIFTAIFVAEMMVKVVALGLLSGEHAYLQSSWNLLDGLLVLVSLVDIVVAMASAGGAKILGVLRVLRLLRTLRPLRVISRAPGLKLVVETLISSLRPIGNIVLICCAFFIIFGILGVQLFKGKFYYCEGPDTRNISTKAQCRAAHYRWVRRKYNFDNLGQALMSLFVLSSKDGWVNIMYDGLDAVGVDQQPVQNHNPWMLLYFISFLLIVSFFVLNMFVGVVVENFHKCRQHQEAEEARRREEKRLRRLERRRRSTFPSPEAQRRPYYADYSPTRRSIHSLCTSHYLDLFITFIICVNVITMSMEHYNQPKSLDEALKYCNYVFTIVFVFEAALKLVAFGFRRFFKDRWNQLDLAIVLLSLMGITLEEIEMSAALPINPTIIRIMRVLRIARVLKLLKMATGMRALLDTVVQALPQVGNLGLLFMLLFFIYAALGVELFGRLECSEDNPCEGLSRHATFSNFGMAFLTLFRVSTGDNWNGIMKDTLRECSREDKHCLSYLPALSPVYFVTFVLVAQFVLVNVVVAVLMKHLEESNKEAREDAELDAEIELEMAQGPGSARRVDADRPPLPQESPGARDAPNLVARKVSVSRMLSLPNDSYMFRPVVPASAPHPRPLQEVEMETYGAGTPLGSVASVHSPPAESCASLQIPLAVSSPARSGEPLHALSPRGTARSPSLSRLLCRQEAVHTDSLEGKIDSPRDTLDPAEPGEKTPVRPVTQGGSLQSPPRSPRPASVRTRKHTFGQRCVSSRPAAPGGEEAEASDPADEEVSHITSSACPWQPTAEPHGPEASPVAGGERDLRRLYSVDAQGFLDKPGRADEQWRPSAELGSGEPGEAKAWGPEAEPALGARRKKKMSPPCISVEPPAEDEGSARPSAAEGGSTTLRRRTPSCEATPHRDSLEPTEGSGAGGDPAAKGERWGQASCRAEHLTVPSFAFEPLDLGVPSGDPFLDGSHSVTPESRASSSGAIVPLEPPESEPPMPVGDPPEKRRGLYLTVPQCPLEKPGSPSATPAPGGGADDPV
Chain of Glyceraldehyde-3-phosphate dehydrogenase (P04406 whole entry): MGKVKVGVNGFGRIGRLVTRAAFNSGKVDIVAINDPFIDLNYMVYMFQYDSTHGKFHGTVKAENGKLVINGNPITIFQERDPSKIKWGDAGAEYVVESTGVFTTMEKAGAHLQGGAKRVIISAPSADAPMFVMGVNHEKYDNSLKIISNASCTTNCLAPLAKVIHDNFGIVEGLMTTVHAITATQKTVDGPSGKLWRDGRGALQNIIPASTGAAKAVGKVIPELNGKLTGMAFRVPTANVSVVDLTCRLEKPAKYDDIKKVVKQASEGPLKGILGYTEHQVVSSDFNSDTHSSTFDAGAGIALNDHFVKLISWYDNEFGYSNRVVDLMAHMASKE
Chain of Genome polyprotein (P29990 2492-3391 limits assumed): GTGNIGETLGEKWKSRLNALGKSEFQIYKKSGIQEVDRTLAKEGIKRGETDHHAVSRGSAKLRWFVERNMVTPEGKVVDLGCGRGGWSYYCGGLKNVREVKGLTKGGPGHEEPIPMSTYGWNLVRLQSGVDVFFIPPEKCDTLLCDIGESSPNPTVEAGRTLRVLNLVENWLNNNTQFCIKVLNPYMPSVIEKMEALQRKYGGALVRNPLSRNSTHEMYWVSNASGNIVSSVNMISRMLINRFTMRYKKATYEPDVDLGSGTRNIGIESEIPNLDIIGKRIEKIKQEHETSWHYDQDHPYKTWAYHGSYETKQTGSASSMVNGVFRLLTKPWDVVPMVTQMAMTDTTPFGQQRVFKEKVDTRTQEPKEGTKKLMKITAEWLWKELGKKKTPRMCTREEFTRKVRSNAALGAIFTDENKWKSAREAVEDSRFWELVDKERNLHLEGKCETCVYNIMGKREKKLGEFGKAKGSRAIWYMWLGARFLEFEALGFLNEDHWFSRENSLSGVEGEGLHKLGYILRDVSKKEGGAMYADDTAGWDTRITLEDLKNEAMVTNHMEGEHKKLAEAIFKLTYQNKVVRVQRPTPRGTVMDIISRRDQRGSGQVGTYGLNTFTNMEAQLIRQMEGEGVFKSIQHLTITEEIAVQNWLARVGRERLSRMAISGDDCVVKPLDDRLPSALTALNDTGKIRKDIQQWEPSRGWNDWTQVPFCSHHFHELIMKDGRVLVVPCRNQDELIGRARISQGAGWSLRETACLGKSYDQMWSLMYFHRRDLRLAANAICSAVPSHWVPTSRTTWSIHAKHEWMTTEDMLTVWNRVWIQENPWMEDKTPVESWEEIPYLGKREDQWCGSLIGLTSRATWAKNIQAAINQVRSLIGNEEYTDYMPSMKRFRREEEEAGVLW
Chain of Tumor necrosis factor (P01375 whole entry): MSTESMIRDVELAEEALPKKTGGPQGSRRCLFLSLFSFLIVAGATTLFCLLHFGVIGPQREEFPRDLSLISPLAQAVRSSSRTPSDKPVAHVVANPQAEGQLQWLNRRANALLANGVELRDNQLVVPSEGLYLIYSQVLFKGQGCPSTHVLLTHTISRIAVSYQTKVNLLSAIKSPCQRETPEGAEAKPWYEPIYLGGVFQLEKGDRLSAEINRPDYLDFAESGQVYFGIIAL

Compound: O=C(N/N=C/c1ccccn1)c1cc([N+](=O)[O-])cc([N+](=O)[O-])c1
- AC50 [1]: 6.54 µM (active)
- IC50 [2]: 40.2 µM (active)

Compound: O=C(COc1ccccc1)NNC(=S)NC(=O)c1ccc(Cl)cc1Cl
- EC50 [3]: 2.96 µM (active)
- EC50 [4]: 110 µM (active)
- EC50 [5]: 0.623 µM (active)
- EC50 [6]: > 38 µM (not active)
- EC50 [7]: 4.73 µM (active)

Compound: CCOC(=O)C1(Cc2ccccc2)CCN(Cc2c[nH]nc2-c2ccccc2)CC1
- EC50 [7]: 6.68 µM (active)

Compound: CCOC(=O)Cc1c(C)c2c(O)cc(O)cc2oc1=O
- IC50 [8]: 15.1 µM (active)
- CC50 [9]: 47.7 µM (active)

Compound: O=S(=O)(c1ccc(Cl)cc1)N1CCCC1c1nc2ccccc2s1 (stereo not drawn)
- EC50 [10]: 6.61 µM (active)

Compound: Cc1cccc(N2C(=O)C(Cl)=C(N(C)C)C2=O)c1
- IC50 [11]: > 50 µM (inconclusive)

Compound: CCOC(=O)Cc1csc(NC(=O)COc2ccc3ccccc3c2)n1
- EC50 [10]: 2.56 µM (active)

Compound: COc1ccc2nc(/C=N/NC(=O)[C@H](C)NC(=O)OC(C)(C)C)ccc2c1
- IC50 [8]: 31.9 µM (active)

Compound: CC(=O)NC(c1cc(Cl)c2cccnc2c1O)C1CC1 (stereo not drawn)
- AC50 [12]: 1.91 µM (active)
- AC50 [13]: 3.26 µM (active)
- CC50 [14]: 5.47 µM (active)

Compound: COc1ccc(-c2cc(=O)oc3cc(OCC(=O)Nc4ccc(CCO)cc4)ccc23)cc1
- IC50 [15]: > 20 µM (inactive)
- EC50 [16]: 9.26 µM (active)
- IC50 [17]: 5.18 µM (active)
- IC50 [18]: > 20 µM (inactive)
- IC50 [19]: > 20 µM (inactive)
- IC50 [20]: > 20 µM (inactive)
- IC50 [21]: > 20 µM (inactive)

Compound: Clc1ccc(CN(CC2CCCO2)C(c2cccs2)c2nnnn2C2CCCC2)cc1 (stereo not drawn)
- EC50 [10]: 6.56 µM (active)

Compound: CCOc1cc(/C=N/Nc2ccc(S(=O)(=O)Nc3ccccc3C(=O)O)cc2[N+](=O)[O-])cc(Cl)c1O
- IC50 [22]: 30.4 µM (active)

Compound: COc1cccc(N2C(=O)C(Cl)=C(N3CCN[C@@H](C)C3)C2=O)c1
- IC50 [11]: > 50 µM (inconclusive)

Compound: CCN(CC)S(=O)(=O)c1cccc(-c2nnc(SCCOc3ccccc3C)o2)c1
- EC50 [10]: 9.91 µM (active)

Compound: CSc1ncccc1C(=O)Nc1nc2ccc(Oc3ccccc3)cc2s1
- CC50 [14]: > 40 µM (active)

Compound: O=C(NC1CC1)C1=C[C@H](c2csc3ccccc23)C[C@H](OCc2ccc(CO)cc2)O1
- EC50 [7]: 10.6 µM (active)

Compound: COc1ccc(C(=O)/C=C/c2cccs2)c(OC(=O)c2cccc([N+](=O)[O-])c2)c1
- EC50 [23]: 10.6 µM (active)
- CC50 [14]: 38.5 µM (active)
- EC50 [24]: > 120 µM (not active)
- EC50 [25]: 4.7 µM (active)

Compound: CCOc1ccc(-c2cc(C(=O)O)c3ccccc3n2)c(OCC)c1
- IC50 [8]: 19.7 µM (active)
- CC50 [9]: 42 µM (active)

Compound: COc1ccc(S(=O)(=O)N(C)C[C@H]2OCCCC[C@H](C)Oc3ccc(N(C)C)cc3C(=O)N([C@H](C)CO)C[C@@H]2C)cc1
- AC50 [26]: 9.32 µM (active)

Compound: O=C(CC1C(=O)NCCN1Cc1ccc(-c2ccccc2)cc1)NCCc1ccccn1 (stereo not drawn)
- EC50 [7]: 4.73 µM (active)

Compound: CSc1ccc(N=Nc2c(C)[nH]n(C)c2=O)cc1
- IC50 [2]: 15.6 µM (active)

Compound: O=c1oc(CCCO)cc2ccc(C#Cc3ccsc3)cc12
- CC50 [14]: > 40 µM (active)

Compound: COC(=O)c1ccc(N2CCN(C)CC2)c(NC(=O)COc2ccccc2)c1
- EC50 [7]: 5.96 µM (active)

Compound: C=CC/N=c1\scc(-c2ccc(F)cc2)n1/N=C/c1ccccn1
- CC50 [14]: > 40 µM (active)

Compound: Cc1cc([N+](=O)[O-])ccc1NC(=S)NC(=O)Cc1ccccc1
- IC50 [27]: > 66.6 µM (inactive)
